Biological target: T1, chicken gizzard smooth muscle myosin subfragment-1 chemically crosslinked to cardiac or skeletal actin (Gallus gallus, UniProt P10587)
T1 construct: chicken gizzard smooth muscle myosin subfragment-1; from tissue; host or cells: chicken gizzard
Experiment: Smooth muscle myosin ATPase dose response assay (pyruvate kinase/horseradish peroxidase/pyruvate oxidase-coupled, amplex red fluorescence)
Format: biochemical
Details: read-out: IC50 Arithmetic Mean
How it was run: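 Lead-optimization format: ATPase coupled via pyruvate kinase, pyruvate oxidase and peroxidase, pH 7.00 at 22° C, with 0.15 mM ATP, 100 mM KCl, 2 mM MgCl2, 2 mM phosphate and 0.1 mM amplex red (final). Crosslinked S1 titrated empirically for set hydrolysis rate; fluorescence (ex 480/em 615 nm) dose curves fit 4-parameter for IC50.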

T1 sequence (P02607 2-151): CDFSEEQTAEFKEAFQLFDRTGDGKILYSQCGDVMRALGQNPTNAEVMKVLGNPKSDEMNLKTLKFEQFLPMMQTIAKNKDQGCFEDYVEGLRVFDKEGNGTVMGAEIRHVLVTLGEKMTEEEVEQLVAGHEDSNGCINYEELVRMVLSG
T1 sequence (P10587 84-789): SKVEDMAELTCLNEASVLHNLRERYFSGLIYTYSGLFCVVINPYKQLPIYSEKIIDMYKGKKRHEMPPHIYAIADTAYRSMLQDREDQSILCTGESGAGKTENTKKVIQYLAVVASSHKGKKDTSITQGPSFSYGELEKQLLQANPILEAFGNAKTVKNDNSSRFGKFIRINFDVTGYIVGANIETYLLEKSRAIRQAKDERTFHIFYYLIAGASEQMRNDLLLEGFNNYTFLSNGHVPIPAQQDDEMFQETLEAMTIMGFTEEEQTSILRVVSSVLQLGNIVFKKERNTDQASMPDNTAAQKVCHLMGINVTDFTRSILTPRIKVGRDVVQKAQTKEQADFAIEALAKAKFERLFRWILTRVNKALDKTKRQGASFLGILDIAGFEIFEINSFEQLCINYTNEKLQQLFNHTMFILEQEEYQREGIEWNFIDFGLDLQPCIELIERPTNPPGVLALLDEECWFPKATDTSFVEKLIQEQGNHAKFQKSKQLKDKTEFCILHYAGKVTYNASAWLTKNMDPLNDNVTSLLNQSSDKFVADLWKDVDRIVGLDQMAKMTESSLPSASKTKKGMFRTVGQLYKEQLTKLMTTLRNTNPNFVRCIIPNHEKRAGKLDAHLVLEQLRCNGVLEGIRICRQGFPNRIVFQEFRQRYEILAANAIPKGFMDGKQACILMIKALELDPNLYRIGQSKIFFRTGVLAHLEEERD

| Compound | IC50 [µM] |
| --- | --- |
| O=C(NCc1cccnc1)c1ccc(-c2ccc(Cl)c(Cl)c2)nc1NCCc1ccccn1 [{6-(3,4-dichlorophenyl)-2-[(2-(2-pyridyl)ethyl)amino](3-pyridyl)}-N-(3-pyridylmethyl)carboxamide] | 3.37 |
| N#Cc1ccccc1-c1ccc(C(=O)NC[C@@H](N)C(N)=O)c(NCCc2cccc(F)c2)n1 [N-((2R)-2-amino-2-carbamoylethyl)(6-(2-cyanophenyl)-2-{[2-(3-fluorophenyl)ethyl]amino}(3-pyridyl))carboxamide] | 0.321 |
| N#Cc1ccccc1-c1ccc(C(=O)NC[C@@H](COC(=O)CN)NC(=O)CN)c(NCCc2cccc(F)c2)n1 [(2S)-2-(2-aminoacetylamino)-3-[(6-(2-cyanophenyl)-2-{[2-(3-fluorophenyl)ethyl]amino}(3-pyridyl))carbonylamino]propyl 2-aminoacetate] | 5.7 |
| N#Cc1ccccc1-c1ccc(C(=O)NCCc2cccnc2)c(NCCc2cccc(F)c2)n1 [(6-(2-cyanophenyl)-2-{[2-(3-fluorophenyl)ethyl]amino}(3-pyridyl))-N-(2-(3-pyridyl)ethyl)carboxamide] | 0.15 |
| O=C(NCc1cccnc1)c1ccc(-c2ccccc2)nc1NCCc1cccc(C(F)(F)F)c1 [[6-phenyl-2-({2-[3-(trifluoromethyl)phenyl]ethyl}amino)(3-pyridyl)]-N-(3-pyridylmethyl)carboxamide] | 8.25 |
| CC(=O)N1CCC[C@H](CNC(=O)c2ccc(-c3ccccc3C#N)nc2NCCc2cccc(F)c2)C1 [N-[((3R)-1-acetyl(3-piperidyl))methyl](6-(2-cyanophenyl)-2-{[2-(3-fluorophenyl)ethyl]amino}(3-pyridyl))carboxamide] | 0.696 |
| CNC(=O)[C@H](C)CNC(=O)c1cc(F)c(-c2cnn(C)c2)nc1NCCc1cccc(F)c1 [(2R)-3-[(5-fluoro-2-{[2-(3-fluorophenyl)ethyl]amino}-6-(1-methylpyrazol-4-yl)(3-pyridyl))carbonylamino]-2-methyl-N-methylpropanamide] | 0.13 |
| NCCCNc1ncccc1CNC(=O)c1ccc(-c2cn[nH]c2)nc1NCCc1cccc(F)c1 [N-({2-[(3-aminopropyl)amino](3-pyridyl)}methyl)(2-{[2-(3-fluorophenyl)ethyl]amino}-6-pyrazol-4-yl(3-pyridyl))carboxamide] | 0.129 |
| C[C@@H](CNC(=O)c1ccc(-c2ccccc2C#N)nc1NCCc1cccc(F)c1)NC(=O)CCN | 3.56 |
| N#Cc1cccc(F)c1-c1ccc(C(=O)NCc2cccnc2)c(NCCc2cccc(F)c2)n1 [(6-(2-cyano-6-fluorophenyl)-2-{[2-(3-fluorophenyl)ethyl]amino}(3-pyridyl))-N-(3-pyridylmethyl)carboxamide] | 0.086 |
| O=C(NC[C@@H]1CCNC1)c1ccc(-c2ccccc2)nc1NCCc1ccccn1 [N-[((3R)pyrrolidin-3-yl)methyl]{6-phenyl-2-[(2-(2-pyridyl)ethyl)amino](3-pyridyl)}carboxamide] | 53.6 |
| N#Cc1cccc(-c2ccc(C(=O)NCc3cccnc3)c(NCCc3ccccn3)n2)c1 [{6-(3-cyanophenyl)-2-[(2-(2-pyridyl)ethyl)amino](3-pyridyl)}-N-(3-pyridylmethyl)carboxamide] | 2.99 |
| N#Cc1ccccc1-c1ccc(C(=O)NC[C@H]2CCCC(=O)N2CCCCN2C(=O)c3ccccc3C2=O)c(NCCc2cccc(F)c2)n1 [N-({(2R)-1-[4-(1,3-dioxobenzo[c]azolin-2-yl)butyl]-6-oxo(2-piperidyl)}methyl)(6-(2-cyanophenyl)-2-{[2-(3-fluorophenyl)ethyl]amino}(3-pyridyl))carboxamide] | 0.791 |
| N#Cc1ccccc1-c1ccc(C(=O)NC[C@H]2CCN2C(=O)CCN)c(NCCc2cccc(F)c2)n1 [N-{[(2R)-1-(3-aminopropanoyl)azetidin-2-yl]methyl}(6-(2-cyanophenyl)-2-{[2-(3-fluorophenyl)ethyl]amino}(3-pyridyl))carboxamide] | 0.045 |
| N#Cc1ccccc1-c1ccc(C(=O)NCc2ccc(N)cn2)c(NCCc2cccc(F)c2)n1 [N-[(5-amino(2-pyridyl))methyl](6-(2-cyanophenyl)-2-{[2-(3-fluorophenyl)ethyl]amino}(3-pyridyl))carboxamide] | 0.021 |
| CC(=O)N1CC(=O)N[C@@H](CNC(=O)c2ccc(-c3ccccc3C#N)nc2NCCc2cccc(F)c2)C1 (stereo in doubt) [N-[(4-acetyl-6-oxopiperazin-2-yl)methyl](6-(2-cyanophenyl)-2-{[2-(3-fluorophenyl)ethyl]amino}(3-pyridyl))carboxamide] | 1.63 |
| Cn1cc(-c2nc(NCCc3cccc(F)c3)c(C(=O)NC[C@H]3CCCN3C(=O)OC(C)(C)C)cc2F)cn1 [tert-butyl (2R)-2-{[(5-fluoro-2-{[2-(3-fluorophenyl)ethyl]amino}-6-(1-methylpyrazol-4-yl)(3-pyridyl))carbonylamino]methyl}pyrrolidinecarboxylate] | 1.46 |
| Cc1cccc(-c2ccc(C(=O)NCc3cccnc3)c(NCCc3ccccn3)n2)c1 [{6-(3-methylphenyl)-2-[(2-(2-pyridyl)ethyl)amino](3-pyridyl)}-N-(3-pyridylmethyl)carboxamide] | 6.27 |

| Compound | IC50 [µM] |
| --- | --- |
| N#Cc1ccccc1-c1ccc(C(=O)NCC2CCN(C(=O)CCCN)C2)c(NCCc2cccc(F)c2)n1 (centres unmarked) [N-{[1-(4-aminobutanoyl)pyrrolidin-3-yl]methyl}(6-(2-cyanophenyl)-2-{[2-(3-fluorophenyl)ethyl]amino}(3-pyridyl))carboxamide] | 0.433 |
| Cn1cc(-c2ccc(C(=O)NC[C@H]3CCCN3)c(NCCc3cccc(F)c3)n2)cn1 [N-[((2R)pyrrolidin-2-yl)methyl](2-{[2-(3-fluorophenyl)ethyl]amino}-6-(1-methylpyrazol-4-yl)(3-pyridyl))carboxamide] | 3.18 |
| C[C@@H](CNC(=O)CNC(=O)OC(C)(C)C)CNC(=O)c1cc(F)c(-c2cnn(C)c2)nc1NCCc1cccc(F)c1 [N-{(2R)-3-[(5-fluoro-2-{[2-(3-fluorophenyl)ethyl]amino}-6-(1-methylpyrazol-4-yl)(3-pyridyl))carbonylamino]-2-methylpropyl}-2-[(tert-butoxy)carbonylamino]acetamide] | 0.373 |
| N#Cc1ccccc1-c1ccc(C(=O)NCc2ccc(C(F)(F)F)cn2)c(NCCc2cccc(F)c2)n1 [(6-(2-cyanophenyl)-2-{[2-(3-fluorophenyl)ethyl]amino}(3-pyridyl))-N-{[5-(trifluoromethyl)(2-pyridyl)]methyl}carboxamide] | 1.5 |
| CS(=O)(=O)NCCNC(=O)c1ccc(-c2ccccc2C#N)nc1NCCc1cccc(F)c1 [(6-(2-cyanophenyl)-2-{[2-(3-fluorophenyl)ethyl]amino}(3-pyridyl))-N-{2-[(methylsulfonyl)amino]ethyl}carboxamide] | 0.326 |
| Cn1cc(-c2nc(NCCc3cccc(F)c3)c(C(=O)NCc3cccnc3)cc2C#N)cn1 [(5-cyano-2-{[2-(3-fluorophenyl)ethyl]amino}-6-(1-methylpyrazol-4-yl)(3-pyridyl))-N-(3-pyridylmethyl)carboxamide] | 0.021 |
| N#Cc1ccccc1-c1ccc(C(=O)NC[C@H]2CCCN2C(=O)CCCN)c(NCCc2ccccc2)n1 [N-{[(2R)-1-(4-aminobutanoyl)pyrrolidin-2-yl]methyl}{6-(2-cyanophenyl)-2-[(2-phenylethyl)amino](3-pyridyl)}carboxamide] | 0.062 |
| N#Cc1ccccc1-c1ccc(C(=O)NCc2ncccc2CN)c(NCCc2cccc(F)c2)n1 [N-{[3-(aminomethyl)(2-pyridyl)]methyl}(6-(2-cyanophenyl)-2-{[2-(3-fluorophenyl)ethyl]amino}(3-pyridyl))carboxamide] | 0.624 |
| NCc1ncccc1CNC(=O)c1ccc(-c2cc[nH]n2)nc1NCCc1cccc(F)c1 [N-{[2-(aminomethyl)(3-pyridyl)]methyl}(2-{[2-(3-fluorophenyl)ethyl]amino}-6-pyrazol-3-yl(3-pyridyl))carboxamide] | 0.043 |
| N#Cc1ccccc1-c1ccc(C(=O)NC[C@@H]2CCCCN2)c(NCCc2cccc(F)c2)n1 [N-[((2S)(2-piperidyl))methyl](6-(2-cyanophenyl)-2-{[2-(3-fluorophenyl)ethyl]amino}(3-pyridyl))carboxamide] | 1.02 |
| N#Cc1ccccc1-c1ccc(C(=O)NCCc2ccccn2)c(NCCc2cccc(F)c2)n1 [(6-(2-cyanophenyl)-2-{[2-(3-fluorophenyl)ethyl]amino}(3-pyridyl))-N-(2-(2-pyridyl)ethyl)carboxamide] | 0.291 |
| O=C(NCc1cc[nH]n1)c1ccc(-c2cc[nH]n2)nc1NCCc1cccc(F)c1 [(2-{[2-(3-fluorophenyl)ethyl]amino}-6-pyrazol-3-yl(3-pyridyl))-N-(pyrazol-3-ylmethyl)carboxamide] | 0.092 |
| N[C@@H](CO)CNC(=O)c1cc(F)c(-c2cn[nH]c2)nc1NCCc1cccc(F)c1 [N-((2R)-2-amino-3-hydroxypropyl)(5-fluoro-2-{[2-(3-fluorophenyl)ethyl]amino}-6-pyrazol-4-yl(3-pyridyl))carboxamide] | 1.82 |
| CC(=O)N1CC[C@@H]1CNC(=O)c1ccc(-c2ccccc2C#N)nc1NCCc1cccc(F)c1 [N-[((2R)-1-acetylazetidin-2-yl)methyl](6-(2-cyanophenyl)-2-{[2-(3-fluorophenyl)ethyl]amino}(3-pyridyl))carboxamide] | 0.043 |
| CCc1ccc(-c2ccc(C(=O)NCc3cccnc3)c(NCCc3ccccn3)n2)cc1 [{6-(4-ethylphenyl)-2-[(2-(2-pyridyl)ethyl)amino](3-pyridyl)}-N-(3-pyridylmethyl)carboxamide] | 2.79 |
| C[C@H](CNC(=O)c1ccc(-c2ccccc2C#N)nc1NCCc1cccc(F)c1)NC(=O)CCCN | 0.204 |
| O=C(NCc1cccnc1)c1ccc(-c2sccc2CO)nc1NCCc1cccc(F)c1 [(2-{[2-(3-fluorophenyl)ethyl]amino}-6-[3-(hydroxymethyl)(2-thienyl)](3-pyridyl))-N-(3-pyridylmethyl)carboxamide] | 2.25 |
